Results published in patent publication EP4768487A1, “FUSED LACTAM RING COMPOUND AND USE THEREOF” (Chengdu Zenitar Biomedical Technology Co., Ltd., priority 2023, dated 2025).
Read-outs that look alike come from different tables or passages of the source.

Experiments:
PARP1 = target: T1, PARP1 (Homo sapiens, UniProt P09874); test: PARP1 enzyme assay (histone-coated plate, chemiluminescence); assay type: biochemical; settings: PARP1 0.02 nM, DNA 0.8 nM, NAD+ 3.5 µM; read-out: PARP-1 IC50
T1 construct: purchased BPS 80501

[1] = tested on: BRCA-mutated MDA-MB-436 cells; test: Anti-proliferative activity against cells (CCK8): MDA-MB-436; assay type: cell-based; settings: Homo sapiens, 72 h + 96 h culture
[2] = tested on: BRCA wild-type DLD-1 cells; test: Anti-proliferative activity against cells (CCK8): DLD-1; assay type: cell-based; settings: Homo sapiens, 72 h + 96 h culture
Procedure, shortened: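 DLD-1 cells (1000/well) in RPMI-1640 with 10% FBS, treated 24 h after plating with PARPi at 0, 1 or 10 µM final. Cultured 72 h, medium exchanged with re-added PARPi, then a further 96 h; read-out by CCK8.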

[3] = target: T2, hERG potassium ion channel (Homo sapiens, UniProt Q12809); test: Inhibition of hERG potassium ion channel (Qpatch, CHO cells stably expressing hERG); assay type: cell-based; settings: for inhibitory effects on the hERG potassium ion channel (in words): conclusion of Table 17; for inhibition at 2.5 min, 20 µM: human, CHO cells stably expressing hERG, read-out: Inhibition rate at 20 µM
T2 construct: expressed in transfected cells; host or cells: CHO cells
Method: Cell culture and treatment: CHO cells stably expressing hERG were cultured in a cell culture flask and incubated in an incubator with 5% CO2 at 37 °C. When the cell density reached 60%-80%, the cell culture medium was removed by pipetting. The cells were washed once with PBS, and then Detachin was added for detachment. After complete detachment, a culture medium was added for neutralization. The cells were then centrifuged, and the supernatant was removed by pipetting. A culture medium was further added for resuspension, and the cell density was adjusted to (2-5) × 10^6 cells/mL for later use.
Compound preparation: The compound stock solution was diluted with 100% DMSO. Specifically, 10 µL of the compound stock solution was added to 20 µL of DMSO, followed by a 3-fold serial dilution to obtain 6 concentrations. 4 µL of each of the 6 compound solutions at different concentrations was taken and added to 396 µL of an extracellular fluid, resulting in a 100-fold dilution to obtain 6 intermediate concentrations. Then, 80 µL of each of the 6 intermediate-concentration compound solutions was taken and added to 320 µL of an extracellular fluid, resulting in a 5-fold dilution to achieve the final test concentrations. The highest test concentration was 40 µM. […] DMSO at this concentration has no effect on the hERG potassium channel. During the compound preparation, the entire dilution process was completed by a Bravo instrument.
Electrophysiological recording process: The single-cell high-impedance sealing and whole-cell mode formation processes were all completed automatically by a Qpatch instrument. After achieving the whole-cell recording mode, the cells were clamped at -80 mV. Before a 5-second +40 mV depolarizing stimulus was applied, a 50-millisecond -50 mV prepulse voltage was first applied. The potential was then repolarized to -50 mV and held for 5 s, and finally returned to -80 mV. This voltage stimulation was applied every 15 s. After 2 min of recording, the extracellular fluid was administered, followed by recording for 5 min. Then, the compound administration process began, starting from the lowest test compound concentration. Each test concentration was applied for 2.5 min. After all the concentrations were applied consecutively, the positive control compound, 3 µM Cisapride, was administered. At least 3 cells (n ≥ 3) were tested for each concentration.
Data processing: Data analysis and processing were performed using GraphPad Prism 5.0 and Excel software. The IC50 of the compound was calculated using GraphPad Prism 5 software by equation fitting as follows: Y = Bottom + (Top−Bottom)/(1+10^(∧)((LogIC50−X)*HillSLope)) [formula] where X is the Log value of the test concentration of the test sample, Y is the inhibition percentage at the corresponding concentration, and Bottom and Top are the minimum and maximum inhibition percentages, respectively. Table 17. Results of inhibition of hERG potassium ion channel by compounds

[4] = Pharmacokinetic evaluation in Balb/c mice; assay type: in vivo; settings: 1mg/kg, PO
Method: Experimental objective: To understand the pharmacokinetic profiles of the compounds. Experimental basis: Technical guidelines for non-clinical pharmacokinetic studies of chemical drugs, 2014.
Experimental scheme: The pharmacokinetic profiles of the compounds were investigated by intravenous administration (1 mg·kg^-1) and intragastric administration (1 mg·kg^-1) in Balb/c mice.
Sample preparation: About 0.2 mg of the compound was weighed out and dissolved in 10 µL of DMSO, and then a sodium chloride solution for injection was added to prepare a 0.1 mg·mL^-1 compound solution for later administration.
Three of the mice were subjected to intravenous administration (IV) at 1 mg·kg^-1, while the other three were subjected to intragastric administration (PO) at 1 mg·kg^-1. About 0.05 mL of blood was collected at 5 min, 15 min, 30 min, 1 h, 2 h, 4 h, 6 h, 8 h, 10 h, 24 h, and 48 h after administration. The collected blood was centrifuged at 3500 rpm for 15 min. The supernatant plasma was then collected and cryopreserved at -40 °C for later analysis. The plasma concentration was quantitatively analyzed using the LC-MS/MS method, and pharmacokinetic parameters such as […] (Cmax), area under plasma concentration-time curve (AUC(0-t)), half-life (T1/2), clearance rate (CL), tissue distribution (Vdss), and bioavailability (F) were calculated. Table 18. Results of pharmacokinetic test of compounds in Balb/c mice

[5] = Cerebrospinal fluid and plasma distribution in vivo; settings: rat, male rats, intravenous 5 mg/kg, n = 1
Method: Experimental procedures: The compound was weighed out, a small amount of DMSO was added, and then a sodium chloride solution for injection was added to prepare a 5 mg·mL^-1 compound solution for later administration. […] 10 µL of the plasma and 10 µL of the cerebrospinal fluid were each added to a centrifuge tube, and 40 µL of acetonitrile containing 20 ng·mL^-1 internal standard SAHA was added for precipitation. […] The supernatant was collected and transferred to a sample vial for later analysis. Range of standard curve: 1-1000 ng·mL^-1.

[6] = tested on: CD34+ hematopoietic stem and progenitor cells (hmPB34-P-SC); test: Hematological toxicity assay (CellTiter-Glo 2.0); assay type: cell-based; settings: 120 h; 5 days of culture
Method: The next day, the cells were resuspended and seeded in a 96-well plate at a concentration of 1000 cells/well, and meanwhile, different concentrations of the drug were added for treatment, with 3 replicate wells set for each concentration. After 5 days of culture, the number of viable cells in each well was determined using a CellTiter-Glo 2.0 kit, followed by detection by a microplate reader.

[7] = tested on: MDA-MB-436 breast cancer subcutaneous xenograft tumor model; test: In vivo pharmacodynamic study of compound 2 in MDA-MB-436 subcutaneous xenograft tumor model; settings: 100 mg/kg, oral once daily, 30 days
Method: Experimental process: Twenty-four female NOD/SCID mice were used in the experiment. […] All groups were subjected to oral administration once daily. Meanwhile, the mice were weighed every 2 days, and the length and width of the tumors were measured with a vernier caliper. After 30 days of administration, the tumor-bearing mice were anesthetized and sacrificed. The tumor tissues were dissected, weighed, and photographed, and the tumor growth inhibition rates were calculated.

[8] = cerebrospinal fluid, read-out: Cerebrospinal fluid

T1 sequence (P09874 whole entry): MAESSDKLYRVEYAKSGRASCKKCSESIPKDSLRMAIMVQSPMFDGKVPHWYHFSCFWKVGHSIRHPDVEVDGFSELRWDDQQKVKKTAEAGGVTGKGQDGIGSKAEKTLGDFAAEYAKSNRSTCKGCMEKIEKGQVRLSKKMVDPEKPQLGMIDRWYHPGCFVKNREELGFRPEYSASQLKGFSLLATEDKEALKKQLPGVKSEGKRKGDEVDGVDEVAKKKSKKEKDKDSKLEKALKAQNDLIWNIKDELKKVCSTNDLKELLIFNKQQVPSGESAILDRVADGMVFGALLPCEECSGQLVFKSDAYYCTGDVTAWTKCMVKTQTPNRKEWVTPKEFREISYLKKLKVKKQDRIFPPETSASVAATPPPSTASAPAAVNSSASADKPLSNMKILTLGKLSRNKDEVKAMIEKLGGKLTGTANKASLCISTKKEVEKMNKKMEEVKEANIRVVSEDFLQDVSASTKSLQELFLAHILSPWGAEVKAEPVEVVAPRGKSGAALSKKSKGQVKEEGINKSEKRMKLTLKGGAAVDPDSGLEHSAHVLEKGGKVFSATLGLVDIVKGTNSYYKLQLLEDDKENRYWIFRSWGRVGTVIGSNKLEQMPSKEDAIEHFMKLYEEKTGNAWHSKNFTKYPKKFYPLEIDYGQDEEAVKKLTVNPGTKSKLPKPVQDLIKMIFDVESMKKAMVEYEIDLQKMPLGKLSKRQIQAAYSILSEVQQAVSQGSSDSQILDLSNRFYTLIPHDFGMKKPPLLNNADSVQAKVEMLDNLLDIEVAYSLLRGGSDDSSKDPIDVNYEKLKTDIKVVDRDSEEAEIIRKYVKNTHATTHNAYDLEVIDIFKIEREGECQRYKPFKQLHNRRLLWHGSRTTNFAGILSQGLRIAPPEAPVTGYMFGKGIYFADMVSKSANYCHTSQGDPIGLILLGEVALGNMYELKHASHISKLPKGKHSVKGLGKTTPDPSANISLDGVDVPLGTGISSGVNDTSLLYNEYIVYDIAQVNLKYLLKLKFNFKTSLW
T2 sequence (Q12809 whole entry): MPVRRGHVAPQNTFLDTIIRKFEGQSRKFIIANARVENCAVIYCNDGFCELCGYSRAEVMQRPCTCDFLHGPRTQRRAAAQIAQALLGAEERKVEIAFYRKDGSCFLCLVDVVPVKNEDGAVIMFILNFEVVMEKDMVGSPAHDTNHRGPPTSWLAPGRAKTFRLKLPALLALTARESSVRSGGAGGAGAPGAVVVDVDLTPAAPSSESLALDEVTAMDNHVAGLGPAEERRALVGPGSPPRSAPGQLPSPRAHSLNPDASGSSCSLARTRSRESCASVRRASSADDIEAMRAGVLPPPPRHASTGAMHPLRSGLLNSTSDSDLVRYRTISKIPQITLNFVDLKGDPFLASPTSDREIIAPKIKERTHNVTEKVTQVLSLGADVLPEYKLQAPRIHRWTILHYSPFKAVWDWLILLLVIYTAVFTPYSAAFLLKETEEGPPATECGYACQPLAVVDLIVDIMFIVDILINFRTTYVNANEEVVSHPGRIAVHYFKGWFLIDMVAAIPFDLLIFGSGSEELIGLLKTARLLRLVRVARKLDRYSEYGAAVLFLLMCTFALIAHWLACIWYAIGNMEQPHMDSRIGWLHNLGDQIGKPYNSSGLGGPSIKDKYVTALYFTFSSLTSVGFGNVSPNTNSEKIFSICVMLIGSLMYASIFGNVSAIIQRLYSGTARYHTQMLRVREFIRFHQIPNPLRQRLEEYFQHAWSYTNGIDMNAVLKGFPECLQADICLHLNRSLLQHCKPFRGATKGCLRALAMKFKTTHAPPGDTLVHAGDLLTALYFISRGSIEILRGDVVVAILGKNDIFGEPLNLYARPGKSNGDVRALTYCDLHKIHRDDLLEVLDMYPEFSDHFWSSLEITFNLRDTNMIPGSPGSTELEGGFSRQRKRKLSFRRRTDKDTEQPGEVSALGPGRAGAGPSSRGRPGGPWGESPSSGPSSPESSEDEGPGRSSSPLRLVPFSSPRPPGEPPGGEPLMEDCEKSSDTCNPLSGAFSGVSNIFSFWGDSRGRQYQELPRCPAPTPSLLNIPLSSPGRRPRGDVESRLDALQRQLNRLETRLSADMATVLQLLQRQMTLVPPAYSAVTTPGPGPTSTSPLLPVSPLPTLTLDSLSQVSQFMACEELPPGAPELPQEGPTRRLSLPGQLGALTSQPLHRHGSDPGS

SMILES | IC50 (PARP1) | IC50 [1] | IC50 [2] | inhibitory effects on the hERG potassium ion channel (in words) [3] | inhibition at 2.5 min, 20 µM [3] | IC50 [6] | also measured
CCc1cc2c([nH]c1=O)CC(CN1CC=C(c3ccc(C(=O)NC)nc3F)CC1)OC2 (stereo not shown) [Compound 6, 1'-((3-Ethyl-2-oxo-1,5,7,8-tetrahydro-2H-pyrano[4,3-b]pyridin-7-yl)methyl)-2-fluoro -N-methyl-1',2',3',6'-tetrahydro-[3,4'-bipyridine]-6-carbo xamide] | ≤ 50 nM | 1 nM | > 1000 nM | Conclusion: Compounds 2, 6, 45, 62, 67, 74, 83, 87, etc., of the present disclosure exhibited relatively weak inhibitory effects on the hERG potassium ion channel. | 7.97% |  | 
CNC(=O)c1ccc(C2=CCN(CC3Cc4[nH]c(=O)c(C5CC5)cc4CO3)CC2)c(F)n1 (stereo not shown) [Example 51, 1'-((3-Cyclopropyl-2-oxo-1,5,7,8-tetrahydro-2H-pyrano[4,3-b]pyridin-7-yl)methyl)-2-fluoro-N-methyl-1',2',3',6'-tetrahydro-[3,4'-bipyridine]-6-carboxamide] | 50 to 500 nM | 160 nM | > 1000 nM |  |  | > 1000 nM | CL [4]: 0.17 mL/min/kg; Vdss [4]: 0.04 L/kg; AUC(0-t) ([4]; male, mouse, plasma): 96800 ng·h/mL; Cmax ([4]; male, mouse, plasma): 6280 ng/mL; half-life ([4]; male, mouse, plasma): 15.9 h; concentration at 0.25 h [5, 8]: 53 ng/g; concentration at 2 h [5, 8]: 25 ng/g; concentration at 0.25 h ([5]; plasma, read-out: Plasma): 41900 ng/mL; concentration at 2 h ([5]; plasma, read-out: Plasma): 21700 ng/mL
C=Cc1cc2c([nH]c1=O)CC(CN1CCN(c3ccc(C(=O)NC)nc3F)CC1)OC2 (stereo not shown) [Example 67, 6-Fluoro-N-methyl-5-(4-((2-oxo-3-vinyl-1,5,7,8-tetrahydro-2H-pyrano[4,3-b]pyridin-7-yl)methyl)piperazin-1-yl)picolinamide] | ≤ 50 nM |  | > 1000 nM | Conclusion: Compounds 2, 6, 45, 62, 67, 74, 83, 87, etc., of the present disclosure exhibited relatively weak inhibitory effects on the hERG potassium ion channel. | 4.18% | > 1000 nM | 
[2H]C([2H])([C@H]1CCc2nc(C)c(=O)[nH]c2C1)N1CCN(c2ccc(C(=O)NC)nc2F)CC1 [Example 83, (S)-6-Fluoro-N-methyl-5-(4-((2-methyl-3-oxo-3,4,5,6,7,8-hexahydroquinoxalin-6-yl)methyl-d 2)piperazin-1-yl)picolinamide] |  |  | > 1000 nM | Conclusion: Compounds 2, 6, 45, 62, 67, 74, 83, 87, etc., of the present disclosure exhibited relatively weak inhibitory effects on the hERG potassium ion channel. | 0.92% |  | concentration at 0.25 h [5, 8]: 86 ng/g; concentration at 2 h [5, 8]: 0 ng/g; concentration at 0.25 h ([5]; plasma, read-out: Plasma): 1500 ng/mL; concentration at 2 h ([5]; plasma, read-out: Plasma): 28 ng/mL
O=C(c1cc(Cc2n[nH]c(=O)c3ccccc23)ccc1F)N1CCN(C(=O)C2CC2)CC1 [Olaparib, reference compound] |  |  |  |  |  | 200 nM | tumor growth inhibition rate [7]: 65.81%

Second part, led by results:

IC50 (PARP1) | IC50 [1] | IC50 [2] | SMILES | inhibitory effects on the hERG potassium ion channel (in words) [3] | inhibition at 2.5 min, 20 µM [3] | IC50 [6] | also measured
≤ 50 nM | 3.5 nM | > 1000 nM | Cc1cc2c([nH]c1=O)CC(CN1CCN(c3ccc(C(=O)NC4CC4)nc3Cl)CC1)OC2 (stereo not shown) [Example 62, 6-Chloro-N-cyclopropyl-5-(4-((3-methyl-2-oxo-1,5,7,8-tetrahydro-2H-pyrano[4,3-b]pyridin-7-yl)methyl)piperazin-1-yl)picolinamide] | Conclusion: Compounds 2, 6, 45, 62, 67, 74, 83, 87, etc., of the present disclosure exhibited relatively weak inhibitory effects on the hERG potassium ion channel. | 49.8% |  | 
≤ 50 nM | 3.9 nM | > 1000 nM | Cc1cc2c([nH]c1=O)CC(CN1CCN(c3ccc(C(=O)Nc4cnn(C)c4)nc3F)CC1)OC2 (stereo not shown) [Example 77, 6-Fluoro-N-(1-methyl-1H-pyrazol-4-yl)-5-(4-((3-methyl-2-oxo-1,5,7,8-tetrahydro-2H-pyrano[4,3-b]pyridin-7-yl)methyl)piperazin-1-yl)picolinamide] |  |  | 307 nM | 
≤ 50 nM | 4.1 nM | > 1000 nM | Cc1nc2c([nH]c1=O)C[C@@H](CN1CCN(c3ccc(C(=O)NC4CC4)nc3F)CC1)CC2 [Example 81, (S)-N-Cyclopropyl-6-fluoro-5-(4-((2-methyl-3-oxo-3,4,5,6,7,8-hexahydroquinoxalin-6-yl)methyl)piperazin-1-yl)picolinamide] |  |  | > 1000 nM | 
≤ 50 nM | 7 nM | > 1000 nM | [2H]C([2H])([C@H]1CCc2nc(C)c(=O)[nH]c2C1)N1CCN(c2ccc(C(=O)NC)nc2Cl)CC1 [Example 85, (S)-6-Chloro-N-methyl-5-(4-((2-methyl-3-oxo-3,4,5,6,7,8-hexahydroquinoxalin-6-yl)methyl-d2)piperazin-1-yl)picolinamide] |  |  | > 1000 nM | 
≤ 50 nM | 8.5 nM | > 1000 nM | CNC(=O)c1ccc(N2CCN(CC3Cc4[nH]c(=O)c(SC)cc4CO3)CC2)c(C)n1 (stereo not shown) [Example 87, N,6-Dimethyl-5-(4-((3-(methylthio)-2-oxo-1,5,7,8-tetrahydro-2H-pyrano[4,3-b]pyridin-7-yl)methyl)piperazin-1-yl)picolinamide] | Conclusion: Compounds 2, 6, 45, 62, 67, 74, 83, 87, etc., of the present disclosure exhibited relatively weak inhibitory effects on the hERG potassium ion channel. | 7.34% |  | 
≤ 50 nM | 6.5 nM | > 1000 nM | CNC(=O)c1ccc(N2CCN(C[C@H]3CCc4nc(C)c(=O)[nH]c4C3)CC2)c(Cl)n1 [Example 106, (S)-6-Chloro-N-methyl-5-(4-((2-methyl-3-oxo-3,4,5,6,7,8-hexahydroquinoxalin-6-yl)methyl)piperazin-1-yl)picolinamide] |  |  | > 1000 nM | 
